Assay results taken from patent publication US8034787B2, “Enzyme-cleavable prodrug compounds” (Medarex, Inc., priority 1998, dated 2011).
Like-named read-outs stand apart in the source and are kept apart here.

How the values were obtained:
[1] = system: HL-60 cells; assay: 3H-thymidine incorporation proliferation assay; type: cell-based; conditions: Homo sapiens, HL-60, 24 hours
Procedure: Promyelocytic leukemia cells, HL-60, were cultured in RPMI media containing 10% heat inactivated fetal calf serum (FCS). On the day of the study, the cells were collected, washed and resuspended at a concentration of 0.5×10^6 cells/ml in RPMI containing 10% FCS. 100 μl/well of cell suspension was added to 96 well plates. […] Finally, 10 μl of a 100 μCi/ml ^3H-thymidine was added per well and the plates were incubated for 24 hours. The plates were harvested using a 96 well Harvester (Packard Instruments) and counted on a Packard Top Count counter. Four parameter logistic curves were fitted to the ^3H-thymidine incorporation as a function of drug molarity using Prism software to determine IC50 values.

[2] = system: MX-1 tumors; type: in vivo, mice
Procedure: MX-1 tumors which are moderately doxorubicin-sensitive, human breast carcinoma xenografts, were implanted subcutaneously (s.c.) and mice were weighed and tumors were measured (by caliper) at least once a week prior to start of dosing (Day 0), then twice a week during the study. Immediately before the start of dosing (Study Day −2 to Day 0), mice were randomized to various groups based on the weight of the tumors. Mice were euthanized after the tumors reached a cutoff weight of 1.5 g (cancer endpoint). Studies were terminated at Day 60.

[3] = system: LS174T tumor
From the text: Statistically significant from vehicle control group: *: p<0.05; **: p<0.01 (unpaired t-test).

[4] = Aggregation, Centricon ultrafiltration; type: physicochemical; conditions: 17.4 μMol/ml in distilled water, 2 hr at 1500 g; listed as Dox
[5] = Acute toxicity of N-capped prodrugs, intravenous bolus in mice; type: in vivo; conditions: intravenous bolus of 250 mg/kg (Dox-HCl eq.), three to five mice per group
[6] = Single dose Maximum Tolerated Dose (SD-MTD) study
[7] = system: LS174T tumors; assay: LS174T xenograft, five weekly intravenous doses (Example 17)
[8] = 3 mg/kg, 5 doses, one every 7 days

## COc1cccc2c1C(=O)c1c(O)c3c(c(O)c1C2=O)C[C@@](O)(C(=O)CO)C[C@@H]3O[C@H]1C[C@H](N)[C@H](O)[C@H](C)O1 [Doxorubicin]
[1]
  IC50: 0.075 µM
[2]; [8]
  MDS: 27.3 ± 2.6 days
  Survival: MDS Extension over controls: 33 ± 13%
  TGD: 6.8 ± 2.7 days
  Tumor Weight (mg, Day 18): 906 ± 150 mg
[2]; 3 mg/kg, 5 doses, one every 7 days, over control at Day 18
  TGI: 22 ± 16%
[2]; mouse, in vivo
  tolerability of dose regimens: very well tolerated
[3]; [8]
  MDS: 25.8 ± 2.5 days
  MDS Extension over controls: 3 ± 13%
  Mean Tumor Weight (mg, Day 19): 1035 ± 180 mg
  TGD: 0.8 ± 3.1 days
  TGI: 0%
[3]; doxorubicin 3 mg/kg
  efficacy in inhibiting LS-174T tumor and extending survival: ineffective
[3]; mouse, in vivo
  tolerability of dose regimens: very well tolerated
[4]
  3000 MWCO Filt.: 81%

## COc1cccc2c1C(=O)c1c(O)c3c(c(O)c1C2=O)C[C@@](O)(C(=O)CO)C[C@@H]3O[C@H]1C[C@H](NC(=O)[C@H](CC(C)C)NC(=O)[C@H](C)NC(=O)[C@H](CC(C)C)NC(=O)CCNC(=O)CCC(=O)O)[C@H](O)[C@H](C)O1 [Suc-βAla-Leu-Ala-Leu-Dox, succinyl-β-Ala-Leu-Ala-Leu-Dox]
[2]; 71 mg/kg group, after Day 46
  mice with up to 20% weight loss: one out of ten
[2]; all dose regimens, 5 doses, one every 7 days
  tolerability of dose regimens: very well tolerated
[3]; all dose regimens, Q7D×5
  tolerability of dose regimens: very well tolerated
[5]
  survival up to 8 days: all animals survived
[6]; 75 mg/kg dose group
  mortality by Day 35: 40%
[6]; 50, 75 or 100 mg/kg intravenous bolus
  acute toxicity within 24 hours: no acute toxicity
[6]; 75 and 100 mg/kg dose groups
  body weight loss (of initial weight): > 20%
[6]; doxorubicin equivalents
  SD-MTD (mg/kg Dox =): 28 mg/kg Dox =
[6]; preliminary observations
  toxicity profile compared with doxorubicin: lack of evidence of characteristic GI-toxicity, cardiotoxicity and myleosuppression of doxorubicin
[7]
  tolerability under repeat-dose levels: safe and well-tolerated
